Source: paper PMC6783563 (Frontiers in Microbiology, 2019)
“Also recorded” adds a separate entry of the source. Where two headings read alike, the source gives them in different places. Residues, ends and D or L forms follow the SMILES beside them. *: point of attachment. Orn(α-tetramethylguanidino) = CN(C)C(=N[C@@H](CCCN)C(=O)*)N(C)C

How the values were obtained:
SD rats = experiment: Tolerance study after intravenous injection in rats; type: in vivo, rat; conditions: monitored 24 h, n = 1
Procedure: (§1) Eight female CD-1 mice (22–30 g, n = 2) or four SD rats (218–260 g, n = 1) were treated iv (10 and 5 mL/kg, respectively) with Api137 formulated in 0.9% saline (TEKnova, Hollister, CA, United States) at concentrations of 5, 10, 25, and 50 mg/kg body weight and their behavior monitored for 24 h.

[1] = Pharmacokinetics: Api137 plasma levels after iv or sc injection in mice; set-up: species or system CD-1 mice; conditions: in vivo
Procedure: (§2) Api137 dissolved in 0.9% saline was injected iv or sc in mice (18–26 g, total = 51) and rats (204–248 g, total = 12) at a dose volume of 10 and 5 mL/kg BW, respectively, according to the dosing scheme (Supplementary Figures 1, 2). Three mice per dose and time point were euthanized by carbon dioxide inhalation and blood was collected via cardiac puncture into K2-EDTA Microtainer® tubes (Becton Dickinson and Company, BD, Franklin Lakes, NJ, United States). Additionally, blood was collected via saphenous vein puncture from three rats into identic tubes.
(§3) Api137 was quantified in EDTA plasma samples using reversed-phase chromatography (RP-HPLC) coupled to electrospray ionization mass spectrometry (ESI-MS/MS) at TNO Triskelion (Zeist, Netherlands). Analog Api134 was used as internal standard. Briefly, internal standard solution (10 μL, 5 mg/L) was added to a plasma sample (50 μL) and mixed with aqueous phosphoric acid (50 μL; 4%, v/v). Solid phase extraction was performed on a WCX micro-elution plate (Waters Corporation, Milford, MA, United States) with a final elution using aqueous acetonitrile (75%, v/v) containing 1% (v/v) trifluoroacetic acid. Extracts were analyzed on an Acquity C18 BEH column (2.1 mm internal diameter, 10 cm length, 1.7 μm particle size; Waters) using an Acquity UPLC system coupled online to a XEVO TQS mass spectrometer (Waters; for details see Supplementary Material). Alternatively, Api137 and metabolites 1–16 and 1–17 were quantified for selected samples in house as reported recently ([Schmidt et al., 2017]).
(§4) 1. Quantitative analysis of Api137 in plasma using a LC-MS/ MS method
(§5) Chemicals were obtained from the following manufacturers. Biosolve B.V. (Valkenswaard, The Netherlands): acetonitrile, formic acid, methanol (all ULC/MS grade); Sigma-Aldrich (St.
(§6) Louis, MO, USA): phosphoric acid (Fluka, 85%), trifluoroacetic acid (Reagent Plus, 99%); Merck KGaA (Darmstadt, Germany): ammonia (25%); water (Milli -Q® Advantage A10 Water […]
(§7) Internal standard solution (10 µL, Api134, 5 µg/mL) was added to a plasma sample (50 µL or 25 µL) and mixed with aqueous phosphoric acid (50 µL or 75 µL; 4%, v/v). Solid phase extraction (SPE) was performed on a WCX micro -elution plate (2 mg, Waters):
(§8) Conditioning I Methanol 200
(§9) Conditioning II Purified water 200
(§10) Sample application Diluted plasma sample 110
(§11) Wash step I Aqueous ammonia (5%, v/v) 200
(§12) Wash step II Aqueous acetonitrile (20%, v/v) 200
(§13) Elution I Aqueous acetonitrile (75%, v/v) including trifluoroacetic 50 […]
(§14) Elution II Aqueous acetonitrile (75%, v/v) including trifluoroacetic 50 […]
(§15) Water (100 µL) was added to the eluate and the plate was covered to avoid avaporation. The plate was shaken (10 min, plate shaker) and the extract was analysed using RPC-MS/MS.
(§16) (1 picture or pasted object on this page, not shown here)
(§17) 1.2.RPC-ESI-MS/MS equipment and conditions
(§18) Equipment/Parameter Value
(§19) UPLC system Acquity (Micromass Waters)
(§20) UPLC column temperature 50 °C
(§21) Autosampler temperature 10 °C […]
(§22) Mobile phase A 1% formic acid in water
(§23) Mobile phase B 1% formic acid in acetonitrile
(§24) Strong Wash [Volume] Methanol/Water/Formic acid (80/20/0.1) [200 µL]
(§25) Weak wash [Volume] Acetonitrile/Water/Trifluoroacetic acid (40/60/0.25) [600 µL]
(§26) Mass spectrometer XEVO TQS (Micromass Waters)
(§27) Ionization mode Electrospray ionization (positive mode)
(§28) Source temperature 150 °C
(§29) Desolvation temperature 600 °C
(§30) Desolvation gas flow 1000 L/h
(§31) Time [min] Mobile phase B [%]
(§32) 1.4.Conditions for multiple reaction monitoring
(§33) Peptide Precursor ion (m/z) Product ion (m/z) Cone [V] Collision energy [eV]
(§34) The peak area of the peptides was obtained using MassLynx 4.1 software (Micromass Waters). The peak a rea ratio (PAR) of peptide Api137 and the internal standard Api134 (Y-axis) was plotted versus the actual peptide concentration (x -axis) to construct a calibration […]
(§35) Supplementary Figure 1 : Dosing schemes and time -points of blood collection for pharmacokinetic analysis of three mice per dose group and time -point. […]

CD-1 mice = experiment: Tolerance study after intravenous injection in mice; type: in vivo, mouse; conditions: female CD-1 mice, n = 2
Procedure: as §1

in vivo = experiment: in vivo; set-up: species or system Sprague Dawley rats; conditions: Sprague Dawley, rat
Procedure: as §2, §3, §4, §5, §6, §7, §8, §9, §10, §11, §12, §13, §14, §15, §16, §17, §18, §19, §20, §21, §22, §23, §24, §25, §26, §27, §28, §29, §30, §31, §32, §33, §34, §35

mouse = conditions: in vivo, ip, 10 mg/kg; cited from earlier work
Description: (§36) In particular, cationic proline-rich antimicrobial peptides (PrAMPs) belong to the second group binding to the negatively charged bacteria surface by electrostatic interactions through basic amino acid residues. Proline residues account for extended, partially polyproline helix II-like secondary structures that most likely support free penetration through the outer membrane of Gram-negative bacteria. PrAMPs accumulate in the periplasmic space where the transporters SbmA and MdtM actively translocate them into the cells ([Mattiuzzo et al., 2007]; [Runti et al., 2013]; [Krizsan et al., 2015a]). ...

[2] = mouse, in vivo, cited from earlier work
Description: as §36, with “... || Severe multi-drug resistant infections are treated under medical supervision in the hospital using intravenous injection or infusion as preferred administration route for rapid and controlled achievement of efficacious drug plasma levels. […] Unexpectedly, the maximal plasma levels of 6.8 mg/L obtai ...” for “...”

[3] = system: Escherichia coli ATCC 25922; experiment: Lethal murine intraperitoneal sepsis (infection) model; type: in vivo, CD-1 mice; conditions: control, iv 0.25 mg/kg at 1 h post infection, n = 6
Procedure: Escherichia coli ATCC 25922 was obtained from American Type Culture Collection (Manassas, VA, United States). Cells were grown overnight on solid agar, suspended in saline and adjusted to an OD of 0.1 at 625 nm. The suspension was further diluted in 5% hog gastric mucin (Sigma-Aldrich Corporation, St. Louis, MO, United States) and final inoculums between 4.8 × 10^5 and 2.0 × 10^6 colony forming units (cfu) per mouse were injected ip (500 μL). Api137 and levofloxacin was dissolved in sterile saline and sterile water, respectively, and were administered iv (5 mL/kg) into the tail vein or sc (10 mL/kg) into the back. Alternatively, an hour post infection ALZET® osmotic pumps were implanted under isoflurane anesthesia (see above). After 24 h, pumps were exchanged once and finally removed after 48 h.
The log-rank (Mantel-Cox) test was used for comparison of the survival curves and dose-response curves were fitted with the “dose-response log(inhibitor) vs. normalized response – variable slope” function with “least squares fit” using GraphPad Prism 5.02.

[4] = EDTA plasma of CD-1 mice after continuous sc infusion of Api137 (12.8 mg/kg/h) using ALZET osmotic pumps; conditions: up to 24 h
[5] = CD-1, mouse, iv, 5 mg/kg, Plasma level
[6] = CD-1, mouse, iv, 10 mg/kg, Plasma level
[7] = CD-1, mouse, iv, 20 mg/kg, Plasma level
[8] = CD-1, mouse, sc, 20 mg/kg, Plasma level

Molecule: CC[C@H](C)[C@H](NC(=O)[C@H](Cc1ccc(O)cc1)NC(=O)[C@@H](NC(=O)[C@@H]1CCCN1C(=O)[C@H](CCCNC(=N)N)NC(=O)[C@H](CC(N)=O)NC(=O)[C@H](CC(N)=O)NC(=O)[C@H](CCCN)N=C(N(C)C)N(C)C)C(C)C)C(=O)N1CCC[C@H]1C(=O)N[C@@H](CCCNC(=N)N)C(=O)N1CCC[C@H]1C(=O)N[C@@H](CCCNC(=N)N)C(=O)N1CCC[C@H]1C(=O)N1CCC[C@H]1C(=O)N[C@@H](Cc1c[nH]cn1)C(=O)N1CCC[C@H]1C(=O)N[C@@H](CCCNC(=N)N)C(=O)N[C@@H](CC(C)C)C(=O)O [Api137] ({Orn(α-tetramethylguanidino)}-NNRPVYIPRPRPPHPRL-OH)
- Tolerance after iv injection (SD rats; 5 mg/kg iv): No adverse effects were observed
- Tolerance after iv injection (SD rats; 10 to 50 mg/kg iv): experienced labored breathing and lethargy but recovered to normal limits within 5 h post injection
- level at 0.5 h ([1]; CD-1, mouse, 20 mg/kg, Plasma level after 30 min): ~500 ng/mL
- Plasma level ([1]; CD-1, mouse, iv): 5 to 20 ng/mL
- level at 245 min ([1]; CD-1, mouse, iv, 5 mg/kg, Plasma concentration): 10100 ng/mL
- level at 5 min [1, 5]: 6800 ng/mL
- level at 0.5 h [1, 5]: 90 ng/mL
- level at 245 min ([1]; CD-1, mouse, iv, 10 mg/kg, Plasma concentration): 10500 ng/mL
- level at 5 min [1, 6]: 12900 ng/mL
- level at 0.5 h [1, 6]: 300 ng/mL
- level at 4.5 h [1, 6]: 160 ng/mL
- level at 245 min ([1]; CD-1, mouse, iv, 20 mg/kg, Plasma concentration): 22900 ng/mL
- level at 5 min [1, 7]: 23200 ng/mL
- level at 0.5 h [1, 7]: 440 ng/mL
- level at 125 min [1, 7]: 15400 ng/mL
- level at 245 min [1, 7]: 12500 ng/mL
- level at 4.5 h [1, 7]: 90 ng/mL
- level at 5 min ([1]; CD-1, mouse, sc, 5 mg/kg, Plasma level): 400 ng/mL
- level at 5 min ([1]; CD-1, mouse, sc, 10 mg/kg, Plasma level): 900 ng/mL
- level at 5 min [1, 8]: 2900 ng/mL
- level at 0.5 h [1, 8]: 300 ng/mL
- level at 1 h [1, 8]: 14 ng/mL
- half-life ([1]; mouse, iv, 20 mg/kg): < 30 min
- Tolerance after iv injection (CD-1 mice; 5 mg/kg iv in 0.9% saline, monitored 24 h): No adverse effects were observed
- Tolerance after iv injection (CD-1 mice; 50 mg/kg iv): experienced convulsion and low blood pressure immediately after dosing and died within 1 min
- Tolerance after iv injection (CD-1 mice; 10 and 20 mg/kg iv, monitored 24 h): lethargic within minutes directly after dosing with piloerection for the next 45 min but recovered to normal limits within 1 h
- level at 0.5 h (in vivo; iv): 160 to 210 ng/mL
- level at 5 min (in vivo; sc, 5 mg/kg): 100 ng/mL
- level at 0.5 h (in vivo; sc, 5 mg/kg): 30 ng/mL
- level at 5 min (in vivo; sc, 10 mg/kg): 400 ng/mL
- level at 0.5 h (in vivo; sc, 10 mg/kg): 80 ng/mL
- level at 5 min (in vivo; sc, 20 mg/kg): 800 ng/mL
- level at 0.5 h (in vivo; sc, 20 mg/kg): 250 ng/mL
- level at 1 h (in vivo; sc, 20 mg/kg): 20 ng/mL
- Immune response (anti-Api137 IgG antibodies) (mouse): Only one mouse showed a very weak immune response with a very low level of anti-Api137 IgG antibodies
- Plasma level ([2]; ip, 5 mg/kg): 200 ng/mL
- Maximal plasma level ([2]; ip, 20 mg/kg): 3.6 mg/L
- Plasma level (maximal) ([2]; iv, 5 mg/kg): 400 ng/mL

Molecule: C[C@H]1COc2c(N3CCN(C)CC3)c(F)cc3c(=O)c(C(=O)O)cn1c23 [levofloxacin]
- Efficacy compared with Api137 [3]: more efficacious

Molecule: Gu-ONNRPVYIPRPRPPHPRL-OH
- fragment found [4]: Api137(1-17), major, 1 h; also recorded: Api137(1-16), major, 1 h
